Measurements from patent publication US4242325A, “Phosphorotriamides as urease inhibitors” (priority 1979, dated 1980).
Where two headings read alike, the source gives them in different places.

Target: T1, Urease Purified from Proteus mirabilis (Pr-91) (Proteus mirabilis, UniProt P17086)
T1 construct: host or cells: Proteus mirabilis (Pr-91)
Experiment: Inhibition of urease purified from Proteus mirabilis (Pr-91)
Format: biochemical
Source text: The Inhibition of Urease Purified from Proteus mirabilis (Pr-91)
Concentration of Compounds of Formula [drawing 5] for 50% Inhibition of Urease.

T1 sequence (P17086 whole entry): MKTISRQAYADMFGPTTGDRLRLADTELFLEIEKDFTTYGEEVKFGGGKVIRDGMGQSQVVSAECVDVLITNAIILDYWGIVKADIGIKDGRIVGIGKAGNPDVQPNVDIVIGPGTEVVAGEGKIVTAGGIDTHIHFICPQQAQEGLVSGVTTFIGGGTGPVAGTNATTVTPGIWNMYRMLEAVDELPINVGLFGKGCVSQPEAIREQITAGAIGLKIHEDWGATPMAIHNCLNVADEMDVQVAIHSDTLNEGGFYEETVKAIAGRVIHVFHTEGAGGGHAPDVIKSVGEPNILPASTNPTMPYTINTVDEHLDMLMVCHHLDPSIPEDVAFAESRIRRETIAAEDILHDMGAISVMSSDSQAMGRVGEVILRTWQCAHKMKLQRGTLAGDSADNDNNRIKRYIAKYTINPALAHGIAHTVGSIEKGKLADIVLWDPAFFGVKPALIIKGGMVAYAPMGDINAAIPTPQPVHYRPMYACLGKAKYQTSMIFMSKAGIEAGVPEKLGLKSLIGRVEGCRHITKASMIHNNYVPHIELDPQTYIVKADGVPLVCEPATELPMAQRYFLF
T1 sequence (P17088 whole entry, further chain): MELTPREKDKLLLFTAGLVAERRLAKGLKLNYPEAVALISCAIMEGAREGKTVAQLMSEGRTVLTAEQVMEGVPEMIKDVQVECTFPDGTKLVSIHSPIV
T1 sequence (P17087 whole entry, further chain): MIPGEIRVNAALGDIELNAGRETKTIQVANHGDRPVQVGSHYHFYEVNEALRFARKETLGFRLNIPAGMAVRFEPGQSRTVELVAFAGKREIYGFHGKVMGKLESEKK

SMILES | IC50 (urease purified from Proteus mirabilis (Pr-91), read-out: Concentration of compound for 50% inhibition of urease) | IC50
NP(N)(N)=O [H] | 0.12 µM | 
N#Cc1ccc(NP(N)(N)=O)cc1 [4-Cyanophenyl, N-(4-Cyanophenyl)phosphorotriamide] |  | 50 µM
NP(N)(=O)Nc1ccc([N+](=O)[O-])cc1 [4-Nitrophenyl, N-(4-Nitrophenyl)phosphorotriamide] |  | 0.35 µM
NP(N)(=O)Nc1cccc(C(F)(F)F)c1 [3-Trifluoromethylphenyl, N-[3-(Trifluoromethyl)phenyl]phosphorotriamide] |  | 40 µM
NP(N)(=O)Nc1ccccc1 [Phenyl] |  | 13 µM
Nc1ccc(NP(N)(N)=O)cc1 [4-Aminophenyl, N-(4-Aminophenyl)phosphorotriamide] |  | 16 µM
